{"source": "patent US20040181130A1", "about": "“Methods for diagnosing skin lesions” (3M Innovative Properties Company, priority 2003, published 2004)", "tested_on": "AK lesions", "test": "Increase in AK lesion count during 16-week topical treatment of volunteers with AK lesions", "format": "in vivo, human", "excerpt": "Volunteers having from four to eight clinically diagnosed AK lesions located within a 25 cm^2 treatment area were enrolled in a study. The study consisted of a prestudy period, a 16-week treatment period, and an 8-week post treatment period. Enrolled participants were randomized to receive either 5% imiquimod cream (ALDARA, 3M Pharmaceuticals, St. Paul, Minn.) or placebo cream containing no biologically active ingredient.\nSubjects were instructed to topically administer cream from a single-use sachet. Sachets that contained imiquimod contained 250 mg of cream. One group of subjects applied cream two days per week for sixteen weeks, with dosing days occurring a minimum of three days apart. A second group of subjects applied cream three days per week for sixteen weeks, with dosing days occurring at least two days apart.\nAt a pretreatment visit, a baseline AK lesion count was established for each subject. Updated AK lesion counts were calculated at visits after four weeks, eight weeks, and sixteen weeks of treatment. For each individual, “new” AK lesions were calculated as the difference between the updated AK count and the baseline AK count. Thus, subclinical AK lesions may become apparent after treatment with ALDARA cream.", "key": {"[1]": {"conditions": "5% cream topical 2x/week, Any visit, N=215"}, "[2]": {"conditions": "5% cream topical 2x/week, Week 4, N=215"}, "[3]": {"conditions": "5% cream topical 2x/week, Week 8, N=215"}, "[4]": {"conditions": "5% cream topical 2x/week, Week 16, N=215"}, "[5]": {"conditions": "5% cream topical 3x/week, Any visit, N=242"}, "[6]": {"conditions": "5% cream topical 3x/week, Week 4, N=242"}, "[7]": {"conditions": "5% cream topical 3x/week, Week 8, N=242"}, "[8]": {"conditions": "5% cream topical 3x/week, Week 16, N=242"}}}
{"smiles": "CC(C)Cn1cnc2c(N)nc3ccccc3c21", "note": "[Imiquimod, imiquimod]", "values": [{"measurement": "% of Subjects with an Increase in AK Lesion Count", "setting": "[1]", "result": 47.9, "unit": "%"}, {"measurement": "Number of Subjects with an Increase in AK Lesion Count", "setting": "[1]", "result": 103}, {"measurement": "% of Subjects with an Increase in AK Lesion Count", "setting": "[2]", "result": 36.7, "unit": "%"}, {"measurement": "Number of Subjects with an Increase in AK Lesion Count", "setting": "[2]", "result": 79}, {"measurement": "% of Subjects with an Increase in AK Lesion Count", "setting": "[3]", "result": 28.4, "unit": "%"}, {"measurement": "Number of Subjects with an Increase in AK Lesion Count", "setting": "[3]", "result": 61}, {"measurement": "% of Subjects with an Increase in AK Lesion Count", "setting": "[4]", "result": 9.3, "unit": "%"}, {"measurement": "Number of Subjects with an Increase in AK Lesion Count", "setting": "[4]", "result": 20}, {"measurement": "% of Subjects with an Increase in AK Lesion Count", "setting": "[5]", "result": 42.6, "unit": "%"}, {"measurement": "Number of Subjects with an Increase in AK Lesion Count", "setting": "[5]", "result": 103}, {"measurement": "% of Subjects with an Increase in AK Lesion Count", "setting": "[6]", "result": 33.1, "unit": "%"}, {"measurement": "Number of Subjects with an Increase in AK Lesion Count", "setting": "[6]", "result": 80}, {"measurement": "% of Subjects with an Increase in AK Lesion Count", "setting": "[7]", "result": 16.5, "unit": "%"}, {"measurement": "Number of Subjects with an Increase in AK Lesion Count", "setting": "[7]", "result": 40}, {"measurement": "% of Subjects with an Increase in AK Lesion Count", "setting": "[8]", "result": 6.2, "unit": "%"}, {"measurement": "Number of Subjects with an Increase in AK Lesion Count", "setting": "[8]", "result": 15}]}
